From PubChem BioAssay (NCI)
Where “and” joins values, the source holds several entries; their conditions need not be identical. Equal values may be shown once.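 Tested at 5 concentrations; 48 h exposure; 96-well plates; endpoints linearly interpolated, else capped at highest concentration. GI50 = concentration required for 50% inhibition of growth. TGI: total growth inhibition.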

Tests used:
Assay in all cases: inhibition of tumour cell growth, NCI panel, 48 h
HOP-62 NSCLC = test system: HOP-62 NSCLC
HOP-92 NSCLC = test system: HOP-92 NSCLC
HS 578T breast = test system: HS 578T breast
NCI/ADR-RES ovarian = test system: NCI/ADR-RES ovarian
OVCAR-3 ovarian = test system: OVCAR-3 ovarian
PC-3 prostate = test system: PC-3 prostate
SNB-19 CNS = test system: SNB-19 CNS
SNB-75 CNS = test system: SNB-75 CNS
SR leukemia = test system: SR leukemia
TK-10 renal = test system: TK-10 renal

## CC(=O)OC1OC([C@H]2c3cccc(O)c3C(=O)c3c(O)cc(C)cc32)C(O)C(O)C1O (stereo partly drawn)
HOP-62 NSCLC
  GI50: 0.065 µM
  TGI: 1.93 µM
HOP-92 NSCLC
  GI50: 0.0623 µM
  TGI: 0.194 µM
HS 578T breast
  TGI: 0.728 µM
NCI/ADR-RES ovarian
  GI50: 0.0383 µM
  TGI: 5.95 µM
OVCAR-3 ovarian
  GI50: 0.029 µM
  TGI: 0.0885 µM
PC-3 prostate
  TGI: 1.09 µM
SNB-19 CNS
  GI50: 0.0342 µM
SNB-75 CNS
  GI50: 0.0297 µM
  TGI: 2.74 µM
SR leukemia
  GI50: 0.0308 µM
  TGI: 0.119 µM
TK-10 renal
  GI50: 0.254 µM
  TGI: 1.75 µM

## Cc1cn(-c2cc(NC(=O)c3cccc(C#Cc4cccc5[nH]nc(N)c45)c3)cc(C(F)(F)F)c2)cn1
HOP-62 NSCLC
  GI50: 3.99 µM
  TGI: 18.3 µM
HOP-92 NSCLC
  GI50: 2.67 µM
  TGI: 9.75 µM
HS 578T breast
  GI50: 2.86 µM
  TGI: 42.2 µM
NCI/ADR-RES ovarian
  GI50: 13.5 µM
  TGI: > 100 µM
OVCAR-3 ovarian
  GI50: 11.1 µM
  TGI: 83.1 µM
PC-3 prostate
  GI50: 6.46 µM
  TGI: 26.7 µM
SNB-19 CNS
  GI50: 8.14 µM
  TGI: 32.7 µM
SNB-75 CNS
  GI50: 2.19 µM
  TGI: 9.02 µM
SR leukemia
  GI50: 5.06 µM
  TGI: > 100 µM
TK-10 renal
  GI50: 17.8 µM
  TGI: 60.4 µM

## NCCCNCCS
HOP-62 NSCLC
  TGI: > 100 µM
HOP-92 NSCLC
  TGI: > 100 µM
HS 578T breast
  TGI: > 100 µM
NCI/ADR-RES ovarian
  TGI: > 100 µM
OVCAR-3 ovarian
  TGI: > 100 µM
PC-3 prostate
  TGI: > 100 µM
SNB-19 CNS
  TGI: > 100 µM
SNB-75 CNS
  TGI: > 100 µM
SR leukemia
  GI50: > 100 µM and 37 µM
  TGI: > 100 µM
TK-10 renal
  TGI: > 100 µM

## CCN1C(=O)/C(=C/c2c(Cl)[nH]c3cc(C)c(OC)cc23)c2ccccc21
HOP-62 NSCLC
  GI50: 5.6 µM
  TGI: 30.8 µM
HOP-92 NSCLC
  GI50: 12.8 µM
  TGI: 63.4 µM
HS 578T breast
  GI50: 2.86 µM
  TGI: 7.23 µM
NCI/ADR-RES ovarian
  GI50: 4.65 µM
  TGI: 65 µM
OVCAR-3 ovarian
  GI50: 2.6 µM
  TGI: 8.37 µM
PC-3 prostate
  GI50: 3.91 µM
  TGI: > 100 µM
SNB-19 CNS
  GI50: 3.43 µM
  TGI: 48.2 µM
SNB-75 CNS
  GI50: 13.8 µM
  TGI: > 100 µM
SR leukemia
  GI50: 2.49 µM
  TGI: > 100 µM
TK-10 renal
  GI50: 16.5 µM
  TGI: 75.6 µM

## C=CC(=O)N1CCC(Oc2cc3c(Nc4ccc(Cl)c(Cl)c4F)ncnc3cc2OC)CC1
HOP-62 NSCLC
  GI50: 3.88 µM and 3.1 µM
  TGI: 25.1 µM and > 10 µM
HOP-92 NSCLC
  GI50: 0.944 µM and 0.338 µM
  TGI: 5.59 µM and 3.07 µM
HS 578T breast
  GI50: 3.61 µM and 1.74 µM
  TGI: 44.1 µM and 8.16 µM
NCI/ADR-RES ovarian
  GI50: 1.43 µM and 1.41 µM
  TGI: 10.3 µM and > 9.25 µM
OVCAR-3 ovarian
  GI50: 2.63 µM and 1 µM
  TGI: 16.5 µM and > 8.17 µM
PC-3 prostate
  GI50: 7.66 µM and 2.95 µM
  TGI: 24.5 µM and > 10 µM
SNB-19 CNS
  GI50: 8.97 µM and 6.52 µM
  TGI: 23.9 µM and > 10 µM
SNB-75 CNS
  GI50: 1.07 µM and 0.48 µM
  TGI: 13.7 µM and 4.4 µM
SR leukemia
  GI50: 2.27 µM and 2.8 µM
  TGI: 10.9 µM and > 10 µM
TK-10 renal
  GI50: < 0.001 µM
  TGI: 6.61 µM and 4.43 µM

## Nc1n[nH]c2cccc(C#Cc3cccc(NC(=O)c4cccc(C(F)(F)F)c4)c3)c12
HOP-62 NSCLC
  GI50: 3.41 µM
  TGI: 13.9 µM
HOP-92 NSCLC
  GI50: 1.9 µM
  TGI: 5.24 µM
HS 578T breast
  GI50: 1.96 µM
  TGI: 6.09 µM
NCI/ADR-RES ovarian
  GI50: 3.91 µM
  TGI: 23.2 µM
OVCAR-3 ovarian
  GI50: 5.07 µM
  TGI: 17.3 µM
PC-3 prostate
  GI50: 3.96 µM
  TGI: 14.6 µM
SNB-19 CNS
  GI50: 6.13 µM
  TGI: 18.5 µM
SNB-75 CNS
  GI50: 2.79 µM
  TGI: 18.6 µM
SR leukemia
  GI50: 3.95 µM
  TGI: 55 µM
TK-10 renal
  GI50: 5.61 µM
  TGI: 13.7 µM

## COC(=O)c1ccc2[nH]c(O)c(C(=Nc3ccc(N(C)C(=O)CN4CCN(C)CC4)cc3)c3ccc4c(c3)OCO4)c2c1
HOP-62 NSCLC
  GI50: 0.939 µM
  TGI: 4.53 µM
HOP-92 NSCLC
  GI50: 2.09 µM
  TGI: 7.75 µM
HS 578T breast
  GI50: 0.144 µM
  TGI: 2.56 µM
NCI/ADR-RES ovarian
  GI50: 10.7 µM
  TGI: 34 µM
OVCAR-3 ovarian
  GI50: 0.638 µM
  TGI: 2.23 µM
PC-3 prostate
  GI50: 0.489 µM
  TGI: 3.39 µM
SNB-19 CNS
  GI50: 1.06 µM
  TGI: 6.05 µM
SNB-75 CNS
  GI50: 0.0752 µM
  TGI: 1.65 µM
SR leukemia
  GI50: 0.232 µM
  TGI: 2.93 µM
TK-10 renal
  GI50: 1.36 µM
  TGI: 3.14 µM

## Cc1ccc(C)c(NC(=O)CC2Sc3ccccc3NC2=O)c1 (stereo not drawn)
HOP-62 NSCLC
  TGI: 34.1 µM and 48.1 µM
HOP-92 NSCLC
  TGI: 16.9 µM and 42.5 µM
HS 578T breast
  TGI: > 75.2 µM
NCI/ADR-RES ovarian
  TGI: > 74.3 µM
OVCAR-3 ovarian
  GI50: 14.6 µM and 30.3 µM
  TGI: 23.7 µM and 58.4 µM
PC-3 prostate
  TGI: > 100 µM
SNB-19 CNS
  TGI: 42.1 µM and 63.8 µM
SNB-75 CNS
  TGI: 18.8 µM and 29.8 µM
SR leukemia
  TGI: > 100 µM
TK-10 renal
  GI50: 18.3 µM and 41.9 µM
  TGI: 35.5 µM and > 87.3 µM

## O=C(NC(=O)c1c(F)cccc1F)Nc1cccc(Oc2ncc(Cl)cn2)c1
HOP-62 NSCLC
  TGI: 73.6 µM
HOP-92 NSCLC
  TGI: 70.9 µM
HS 578T breast
  TGI: > 92.1 µM
NCI/ADR-RES ovarian
  TGI: > 100 µM
OVCAR-3 ovarian
  TGI: > 100 µM
PC-3 prostate
  TGI: > 100 µM
SNB-19 CNS
  TGI: > 86.3 µM
SNB-75 CNS
  TGI: 60.3 µM
SR leukemia
  TGI: > 73.8 µM
TK-10 renal
  TGI: > 100 µM

## CSC(SC)(C(=O)O)c1cc(-c2c(Cl)cccc2Cl)no1
HOP-62 NSCLC
  TGI: > 100 µM
HOP-92 NSCLC
  TGI: > 100 µM
HS 578T breast
  TGI: > 100 µM
NCI/ADR-RES ovarian
  TGI: > 100 µM
OVCAR-3 ovarian
  TGI: > 100 µM
PC-3 prostate
  TGI: > 100 µM
SNB-19 CNS
  TGI: > 100 µM
SNB-75 CNS
  TGI: > 100 µM
SR leukemia
  TGI: > 100 µM
TK-10 renal
  TGI: > 100 µM

## COc1ccc2c(c1)OC1=C(C(=O)OC1)C2c1cc(OC)c2c(c1)OCCO2 (stereo not drawn)
HOP-62 NSCLC
  GI50: 0.0512 µM
  TGI: > 100 µM
HOP-92 NSCLC
  GI50: 0.0629 µM
  TGI: > 100 µM
HS 578T breast
  GI50: 0.0361 µM
  TGI: > 100 µM
NCI/ADR-RES ovarian
  GI50: 0.0279 µM
  TGI: 0.0915 µM
OVCAR-3 ovarian
  GI50: 0.0285 µM
  TGI: 0.0714 µM
PC-3 prostate
  GI50: 0.0487 µM
  TGI: > 100 µM
SNB-19 CNS
  GI50: 0.0697 µM
  TGI: > 100 µM
SNB-75 CNS
  GI50: 0.0346 µM
  TGI: > 100 µM
SR leukemia
  GI50: 0.0318 µM
  TGI: > 100 µM
TK-10 renal
  GI50: 1.54 µM
  TGI: > 100 µM

## O=C(/C=C/c1ccccc1)Nc1ncc(Cc2ccccc2Cl)s1
HOP-62 NSCLC
  GI50: 0.505 µM
  TGI: > 100 µM
HOP-92 NSCLC
  GI50: 1.26 µM
  TGI: > 100 µM
HS 578T breast
  GI50: 0.302 µM
  TGI: > 24.7 µM
NCI/ADR-RES ovarian
  GI50: 0.325 µM
  TGI: > 100 µM
OVCAR-3 ovarian
  GI50: 0.226 µM
  TGI: 0.63 µM
PC-3 prostate
  GI50: 0.409 µM
  TGI: > 100 µM
SNB-19 CNS
  GI50: 0.404 µM
  TGI: > 100 µM
SNB-75 CNS
  GI50: 0.219 µM
  TGI: 2.16 µM
SR leukemia
  GI50: 0.153 µM
  TGI: > 100 µM
TK-10 renal
  GI50: > 100 µM
  TGI: > 100 µM

## N[C@H](C(=O)O)[C@@H]1CC(Cl)=NO1
HOP-62 NSCLC
  GI50: 6.27 µM
  TGI: 170 µM
HOP-92 NSCLC
  TGI: 541 µM
HS 578T breast
  GI50: 7.42 µM
  TGI: > 1000 µM
NCI/ADR-RES ovarian
  GI50: 37.7 µM
  TGI: 530 µM
OVCAR-3 ovarian
  GI50: 31.4 µM
  TGI: 469 µM
PC-3 prostate
  GI50: 11.5 µM
  TGI: > 1000 µM
SNB-19 CNS
  GI50: 16.8 µM and 5.14 µM
  TGI: > 661 µM
SNB-75 CNS
  TGI: > 1000 µM
SR leukemia
  GI50: 3.44 µM
  TGI: > 583 µM
TK-10 renal
  GI50: 34.5 µM
  TGI: > 609 µM
